What was measured:
[1] = target: T1, EGFR gatekeeper to methionine mutant in NCI-H1975 cells (Homo sapiens, UniProt P00533, L858R/T790M); experiment: EGFR signaling and proliferation in NCI-H1975 cells; assay type: cell-based
T1 construct: mutation of the EGFR gatekeeper to methionine in NCI-H1975 cells; endogenous in cells; host or cells: NCI-H1975

[2] = test system: BT-474 cells; experiment: 72 h proliferation of BT-474 cells in the presence or absence of NRG; assay type: cell-based; details: BT-474, 72 h dose response +/- NRG
Procedure: FIGS. 1A-1E. NRG rescues HER2 over-expressing cancer cells from HER2 inhibitors. […] FIG 1B: Same experiment as depicted in FIG. 1A, but with the inhibitor TAK-285. FIG. 1C: The ability of NRG to rescue SK-BR-3 and BT-474 cell proliferation from HER2 inhibitors is dose dependent. Cells were treated with 1 μM of the indicated inhibitor in the presence of varying concentrations of NRG, and proliferation was read out after 72 h (mean±SD, n=3). […] FIG. 1E: Cartoon schematic of the EGFR family kinase domain asymmetric dimer. The C-terminal domain of the ‘activator’ kinase (right) interacts with the N-terminal portion of the ‘receiver’ kinase (left). This interaction stabilizes the active conformation of the receiver kinase identified by the ‘in’ conformation of the receiver kinase's α-C helix and the ordered extension of the activation loop.
FIGS. 5A-5D. […] FIG. 5A: Chemical structure of compound 3 (also referred to herein as compound 178). FIG. 5B: Proliferation curves for compound 3 against the Ba/F3 cell line panel (mean±SD, n=3). […] FIG. 5D: The same assay in FIG. 2A was performed with compound 3 in SK-BR-3 cells.

[3] = test system: NCI-H1781 cells; experiment: 72 h proliferation of NCI-H1781 cells; assay type: cell-based; details: NCI-H1781, 72 h
[4] = test system: HER2/HER3 signaling in CHL-1 cells; experiment: HER2/HER3 signaling in CHL-1 cells; assay type: cell-based; details: compared with lapatinib
[5] = test system: NRG autocrine signaling in CHL-1 cells; experiment: NRG autocrine feedback signaling in CHL-1 cells (immunoblot); assay type: cell-based; details: CHL-1 cells pre-treated with lapatinib 24 h, washed, drug 24 h; at 1 μM
Procedure: Similar results were obtained in FaDu cells, which are also dependent on NRG autocrine signaling (FIGS. 20A-20B).
Immunoblotting. Cells were grown in 6 well plates and treated according to the indicated conditions at which point the media was aspirated, cells were washed with 1 mL of cold PBS, which was then aspirated and the plates were frozen at −80° C. The frozen cells were thawed on the plates in a buffer containing 50 mM Tris pH 7.5, 150 mM NaCl, 1 mM EDTA, and 1% Triton X-100 supplemented with 1× phosphatase (PhoSTOP, Roche) and 1× protease (complete-mini tablets, Roche) inhibitors. Lysates were scraped, transferred to Eppendorf tubes, and cleared by centrifugation at 20,000×g for 20 min at 4° C. The clarified lysates were transferred to chilled, clean tubes, and normalized for protein concentration by Bradford (Bio-Rad). The normalized lysates were diluted with Laemmli loading buffer, and 10 μg of total protein was run on a 4-12% gradient gel (Invitrogen), which was then transferred to […] nitrocellulose (Bio-Rad) and analyzed using the indicated primary antibodies according to the manufacturer's recommendations. Primary antibodies were detected using IRDye secondary antibodies (Li-Cor) according to the manufacturer's recommendations and scanned on an Odyssey imager (Li-Cor). Scanned images were cropped and assembled in Adobe Illustrator 6.

[6] = target: MST2 (Homo sapiens, UniProt Q13188); experiment: Nanosyn in vitro kinase profiling: MST2; assay type: biochemical; details: compound at 1 μM
MST2, sequence (Q13188 whole entry, species assumed): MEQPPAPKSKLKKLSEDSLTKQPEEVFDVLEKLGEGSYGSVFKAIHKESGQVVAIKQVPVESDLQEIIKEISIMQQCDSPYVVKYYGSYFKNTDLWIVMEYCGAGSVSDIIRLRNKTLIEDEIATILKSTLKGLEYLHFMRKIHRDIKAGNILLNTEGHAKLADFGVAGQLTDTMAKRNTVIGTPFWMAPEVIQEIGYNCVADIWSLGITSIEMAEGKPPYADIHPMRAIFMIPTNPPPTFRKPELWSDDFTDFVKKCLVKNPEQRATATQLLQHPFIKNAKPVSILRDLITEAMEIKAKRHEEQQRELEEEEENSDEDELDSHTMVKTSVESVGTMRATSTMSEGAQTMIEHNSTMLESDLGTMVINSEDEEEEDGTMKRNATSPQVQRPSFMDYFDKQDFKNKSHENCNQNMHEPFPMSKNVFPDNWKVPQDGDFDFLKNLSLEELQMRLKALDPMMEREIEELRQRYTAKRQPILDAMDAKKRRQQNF

[7] = target: JAK2 (Homo sapiens, UniProt O60674); experiment: Nanosyn in vitro kinase profiling: JAK2; assay type: biochemical; details: compound at 1 μM
JAK2, sequence (O60674 whole entry, species assumed): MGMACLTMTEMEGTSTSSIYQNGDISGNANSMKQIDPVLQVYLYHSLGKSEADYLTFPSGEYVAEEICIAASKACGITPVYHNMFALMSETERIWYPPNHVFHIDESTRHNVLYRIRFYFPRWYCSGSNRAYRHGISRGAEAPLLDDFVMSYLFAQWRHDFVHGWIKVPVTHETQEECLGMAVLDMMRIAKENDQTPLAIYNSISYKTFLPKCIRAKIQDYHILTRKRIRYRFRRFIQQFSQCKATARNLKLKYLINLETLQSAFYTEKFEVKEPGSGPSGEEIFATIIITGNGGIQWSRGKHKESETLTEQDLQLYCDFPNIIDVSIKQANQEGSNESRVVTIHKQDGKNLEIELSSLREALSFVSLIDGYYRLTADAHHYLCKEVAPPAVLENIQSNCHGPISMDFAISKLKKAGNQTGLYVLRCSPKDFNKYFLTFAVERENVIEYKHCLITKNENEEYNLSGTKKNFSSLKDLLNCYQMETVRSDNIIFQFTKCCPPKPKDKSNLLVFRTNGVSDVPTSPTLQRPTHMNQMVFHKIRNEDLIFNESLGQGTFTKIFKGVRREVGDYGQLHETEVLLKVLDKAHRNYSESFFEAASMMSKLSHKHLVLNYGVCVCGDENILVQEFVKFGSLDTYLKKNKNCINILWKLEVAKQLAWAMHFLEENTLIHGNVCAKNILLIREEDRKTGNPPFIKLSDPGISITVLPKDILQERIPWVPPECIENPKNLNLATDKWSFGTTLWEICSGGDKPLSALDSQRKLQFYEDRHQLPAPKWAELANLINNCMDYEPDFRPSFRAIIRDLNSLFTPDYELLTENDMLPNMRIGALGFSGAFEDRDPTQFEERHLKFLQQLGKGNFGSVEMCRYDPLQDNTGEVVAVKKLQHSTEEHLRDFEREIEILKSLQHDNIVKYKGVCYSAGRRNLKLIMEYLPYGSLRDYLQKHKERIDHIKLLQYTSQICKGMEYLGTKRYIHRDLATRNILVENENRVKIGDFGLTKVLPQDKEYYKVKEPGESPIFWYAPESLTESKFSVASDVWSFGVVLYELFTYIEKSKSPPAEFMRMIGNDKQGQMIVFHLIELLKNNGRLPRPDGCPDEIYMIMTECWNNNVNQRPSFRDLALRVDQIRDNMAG

[8] = target: CDK1 (Homo sapiens, UniProt P06493); experiment: Nanosyn in vitro kinase profiling: CDK1; assay type: biochemical; details: compound at 1 μM
CDK1, sequence (P06493 whole entry, species assumed, the tested form may be a part): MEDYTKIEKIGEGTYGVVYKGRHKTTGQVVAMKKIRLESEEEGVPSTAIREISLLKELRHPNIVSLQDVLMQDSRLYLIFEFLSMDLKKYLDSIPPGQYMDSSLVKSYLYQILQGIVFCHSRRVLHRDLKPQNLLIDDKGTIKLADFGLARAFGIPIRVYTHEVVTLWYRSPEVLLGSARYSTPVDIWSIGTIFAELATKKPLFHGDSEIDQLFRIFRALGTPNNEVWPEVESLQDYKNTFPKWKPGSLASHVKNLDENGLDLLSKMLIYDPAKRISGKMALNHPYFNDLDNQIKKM
CDK1, sequence (P14635 whole entry partner, species assumed, the tested form may be a part): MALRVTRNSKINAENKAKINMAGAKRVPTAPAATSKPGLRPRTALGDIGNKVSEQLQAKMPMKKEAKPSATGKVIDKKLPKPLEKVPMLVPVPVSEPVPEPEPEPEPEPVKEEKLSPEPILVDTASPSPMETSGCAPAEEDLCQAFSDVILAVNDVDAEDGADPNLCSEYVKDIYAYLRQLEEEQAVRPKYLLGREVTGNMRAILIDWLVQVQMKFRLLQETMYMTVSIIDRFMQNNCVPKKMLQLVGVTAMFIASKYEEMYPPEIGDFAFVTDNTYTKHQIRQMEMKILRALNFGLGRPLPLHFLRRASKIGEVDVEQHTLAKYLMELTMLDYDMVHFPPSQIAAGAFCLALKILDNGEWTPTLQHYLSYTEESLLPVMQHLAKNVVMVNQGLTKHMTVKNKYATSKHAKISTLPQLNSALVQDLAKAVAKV

[9] = test system: wt or T787M HER3 kinase domain; experiment: Thermofluor stabilization of HER3 kinase domain; assay type: binding; details: HER3 T787M vs wt kinase domain
Source text: FIGS. 4A-4F. Compound 2 is a selective Type I inhibitor for HER2. […] FIG. 4B: Thermal stabilization of the HER3 kinase domain by either compound 2 or ATP as determined by Thermofluor (mean±SD, n=3). FIGS. 4C-4D: The crystal structure of either erlotinib (FIG. 4C) or 2 (FIG. 4D) bound to EGFR V924R. The kinase domain in complex with compound 2 has been stabilized in the active confirmation by drug binding, despite the mutation—as evidenced by the ordered extension of the activation loop and the inward positioning of the α-C helix.
FIGS. 12A-12B. […] FIG. 12A. […] FIG. 12B. Stabilization of either wt or T787M HER3 kinase domain by compound 2 compared to DMSO as determined by thermofluor (mean value±SD, n=2).

[10] = target: T2, ErbB3-ICD665-1323 (Homo sapiens, UniProt P21860); experiment: HER3 Autophosphorylation Assay; assay type: biochemical; details: purified clustered HER3 intracellular domain
T2 construct: The HER3 intracellular domain (665-1323) was concentrated on vesicles; made in house
T2 sequence (P21860 684-1342): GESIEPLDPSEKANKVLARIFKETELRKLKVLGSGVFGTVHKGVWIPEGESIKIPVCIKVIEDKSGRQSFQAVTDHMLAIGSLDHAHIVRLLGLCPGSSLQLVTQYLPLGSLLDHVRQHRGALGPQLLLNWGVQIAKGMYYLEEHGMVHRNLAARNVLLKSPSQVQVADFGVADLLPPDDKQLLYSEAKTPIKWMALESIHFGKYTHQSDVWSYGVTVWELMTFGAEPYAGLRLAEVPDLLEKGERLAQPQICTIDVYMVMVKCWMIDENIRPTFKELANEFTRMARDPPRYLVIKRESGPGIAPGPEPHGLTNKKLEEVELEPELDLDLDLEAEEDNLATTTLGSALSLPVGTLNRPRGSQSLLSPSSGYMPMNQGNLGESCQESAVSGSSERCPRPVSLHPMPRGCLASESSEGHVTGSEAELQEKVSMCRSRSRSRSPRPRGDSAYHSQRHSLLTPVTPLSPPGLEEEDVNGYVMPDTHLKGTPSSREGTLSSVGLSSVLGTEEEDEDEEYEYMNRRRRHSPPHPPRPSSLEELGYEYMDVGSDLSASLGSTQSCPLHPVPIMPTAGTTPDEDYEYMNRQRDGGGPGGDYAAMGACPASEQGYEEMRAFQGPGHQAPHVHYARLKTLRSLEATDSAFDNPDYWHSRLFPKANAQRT
Procedure: HER3 Autophosphorylation Assay. ErbB3-ICD^665-1323 wild-type expression and purification was performed exactly as previously described. To monitor the change in autophosphorylation, 1 μM ErbB3-ICD^665-1323 protein was incubated with inhibitors (varied concentrations noted in the figure) and DOGS-Ni-NTA (prepared as described in Zhang et al.[4]) in 100 mM MOPS pH 7.4, containing 200 mM NaCl, divalent cations (2 mM MnCl2 plus 5 mM MgCl2), 5% glycerol, 0.1 mM DTT and 200 μM ATP for 1 hour at 25 ° C., and the reactions were stopped by adding 50 mM EDTA and SDS-PAGE gel-loading buffer for rapid qualitative comparison of autophosphorylation by SDS-PAGE and immunoblotting with anti-phosphotyrosine (pY20) and anti-(His)5.

T1 sequence (P00533 25-1210 T790M/L858R): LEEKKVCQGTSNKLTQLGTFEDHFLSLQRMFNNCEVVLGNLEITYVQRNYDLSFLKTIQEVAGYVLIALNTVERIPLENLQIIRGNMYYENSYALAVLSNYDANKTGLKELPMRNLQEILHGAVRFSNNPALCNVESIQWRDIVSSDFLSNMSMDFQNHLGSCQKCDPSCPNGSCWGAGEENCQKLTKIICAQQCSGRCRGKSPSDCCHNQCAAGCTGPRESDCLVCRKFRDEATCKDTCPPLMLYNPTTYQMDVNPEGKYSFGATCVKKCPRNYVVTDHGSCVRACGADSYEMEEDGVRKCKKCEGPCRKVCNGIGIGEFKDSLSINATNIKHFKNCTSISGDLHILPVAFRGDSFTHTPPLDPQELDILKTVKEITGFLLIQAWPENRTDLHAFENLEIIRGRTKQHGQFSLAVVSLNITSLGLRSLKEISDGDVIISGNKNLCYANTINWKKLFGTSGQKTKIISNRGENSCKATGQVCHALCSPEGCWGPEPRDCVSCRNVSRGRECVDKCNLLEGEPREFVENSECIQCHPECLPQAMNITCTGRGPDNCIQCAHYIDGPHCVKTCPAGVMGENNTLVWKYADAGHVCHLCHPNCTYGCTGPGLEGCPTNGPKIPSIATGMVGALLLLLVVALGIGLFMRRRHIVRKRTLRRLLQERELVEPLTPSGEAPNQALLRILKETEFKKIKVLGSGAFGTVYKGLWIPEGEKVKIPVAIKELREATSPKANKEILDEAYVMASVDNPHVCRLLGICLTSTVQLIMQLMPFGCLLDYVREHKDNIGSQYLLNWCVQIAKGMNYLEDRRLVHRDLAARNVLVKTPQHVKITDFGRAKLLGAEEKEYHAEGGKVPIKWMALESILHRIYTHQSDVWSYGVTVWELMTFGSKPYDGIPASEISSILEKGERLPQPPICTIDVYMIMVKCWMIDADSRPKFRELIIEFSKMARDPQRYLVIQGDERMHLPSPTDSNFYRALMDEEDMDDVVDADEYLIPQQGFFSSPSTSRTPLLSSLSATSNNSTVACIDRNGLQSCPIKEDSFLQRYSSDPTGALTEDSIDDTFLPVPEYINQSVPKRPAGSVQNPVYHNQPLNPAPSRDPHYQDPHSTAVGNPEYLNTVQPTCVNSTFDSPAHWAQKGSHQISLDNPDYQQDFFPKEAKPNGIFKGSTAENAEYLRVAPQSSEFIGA

p-845 site inhibition at concentrations ([1]; EGFR gatekeeper methionine) | inhibition at 1 µM [6] [%] | inhibition at 1 µM [7] [%] | inhibition at 1 µM [8] [%] | effect of gatekeeper mutation on binding affinity [9] | inhibition of HER3 auto-phosphorylation [10] | Compound | effect of EGFR gatekeeper methionine mutation on inhibition ([1]; signaling and proliferation) | sensitivity of proliferation inhibition to NRG [2] | sensitivity of cell proliferation [3] | inhibition of feedback activated HER2/HER3 signaling ([4]; CHL-1, after 24 h DMSO or 500 nM lapatinib, then 24 h dose response) | inhibition of p-HER3 and PI3K/Akt pathway ([4]; CHL-1, dose response 24 h) | inhibition of feedback-released signaling [5]
less than 1 μM | 84 | 83 | 18 | – | – | COc1ccc(-c2ccoc2)cc1Nc1ncnc2[nH]cc(-c3cc[nH]n3)c12 [compound 3, N-(5-(furan-3-yl)-2-methoxyphenyl)-5-(1H-pyrazol-3-yl)-7H-pyrrolo[2,3-d]pyrimidin-4-amine] | caused a shift in the ability of compound 3 to inhibit both signaling and proliferation | insensitive to the presence of NRG | sensitive | better able to inhibit feedback activated HER2/HER3 signaling | better able to inhibit p-HER3 and thus the PI3K/Akt pathway | complete inhibition
– | – | – | – | reduces the binding affinity | able to inhibit | COc1ccc(-c2ccco2)cc1Nc1ncnc2[nH]nc(-c3ccco3)c12 [compound 2, 3-(furan-2-yl)-N-(5-(furan-2-yl)-2-methoxyphenyl)-1H-pyrazolo[3,4-d]pyrimidin-4-amine] | – | – | – | – | – | –

From US20190119284A1, “ErbB Inhibitors and Uses Thereof” (The Regents of the University of California, priority 2016, published 2019)
